This note sets out measurements from publication PMC3248787 (Bioorganic & medicinal chemistry letters, 2011).

In test [1] the test system is acetylated lysine in HeLa cells. The experiment in a line: immunofluorescence, acetylated lysine in HeLa cells. The test is classed as cell-based. The conditions noted are these: 16 h, normalized to DMSO control.
Test [2] relates to acetylated α-tubulin in HeLa cells. The test is described as follows: immunofluorescence, acetylated α-tubulin in HeLa cells. The conditions noted are these: 16 h, normalized to DMSO control. In kind it is cell-based.
The next test concerns trypsin. The test is described as follows: trypsin counter screen. Background: A counterscreen serves to expose hits that act by an unwanted route or on another target.
The next test deals with T1, purified HDAC8 (Homo sapiens, UniProt Q9BY41).
T1 sequence (Q9BY41 1-377): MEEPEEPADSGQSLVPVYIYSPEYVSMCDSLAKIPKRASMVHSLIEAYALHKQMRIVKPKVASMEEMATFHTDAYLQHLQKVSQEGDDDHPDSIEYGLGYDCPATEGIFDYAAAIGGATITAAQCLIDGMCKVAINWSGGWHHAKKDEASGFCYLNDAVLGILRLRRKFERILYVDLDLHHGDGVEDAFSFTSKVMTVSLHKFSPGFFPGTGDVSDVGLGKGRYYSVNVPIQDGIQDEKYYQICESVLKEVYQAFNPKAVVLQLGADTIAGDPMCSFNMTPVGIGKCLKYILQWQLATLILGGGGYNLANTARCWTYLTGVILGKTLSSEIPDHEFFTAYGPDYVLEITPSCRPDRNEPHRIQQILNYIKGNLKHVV
The experiment in a line: small-molecule microarray. The test is classed as binding. The note with it: SMM screen.

Take `O=C(CCCCCCC(=O)Nc1ccccc1)NO` [SAHA, suberoylanilide hydroxamic acid]: the acetylated lysine level entry in test [1] is “increases both global lysine and α-tubulin acetylation levels”. Moreover, the “acetylated α-tubulin level” value in test [2] is “increases both global lysine and α-tubulin acetylation levels”.
As to `Nc1ccccc1NC(=O)c1ccc(CNC(=O)OCc2cccnc2)cc1` [MS-275], in test [1], the acetylated lysine level entry was “increased global lysine acetylation”. In addition, the “acetylated α-tubulin level” value in test [2] is “little change in tubulin acetylation”.
On to `CC(=O)Nc1ccc(C(=O)CSc2nc(C)cc(O)n2)cc1` [Compound 7], for which, in the test with trypsin, the “interference with the proteolytic activity of trypsin” value was “does not interfere with the proteolytic activity of trypsin”. The “binding to purified HDAC8 on small-molecule microarray” value on purified HDAC8 is reported as “binder”.
